Data set [1] concerns the target T1, human NK-3 receptor (Homo sapiens (Human), UniProt P29371). Kind of data set: Aequorin functional assay with human NK-3 receptor (antagonist testing). The data set is classed as cell-based. Conditions: CHO cells expressing human NK-3 receptor; agonist NKA at EC80 (3 nM); read-out: Functional assay: Aequorin assay with human NK-3 receptor hNK-3 - AEQ (antagonist IC50). How it is done:
Aequorin Assay with Human NK-3 Receptor
Changes in intracellular calcium levels are a recognized indicator of G protein-coupled receptor activity. The efficacy of compounds of the invention to inhibit NKA-mediated NK-3 receptor activation was assessed by an in vitro Aequorin functional assay. Chinese Hamster Ovary recombinant cells expressing the human NK-3 receptor and a construct that encodes the photoproteinapoaequorin were used for this assay. In the presence of the cofactor coelenterazine, apoaequorin emits a measurable luminescence that is proportional to the amount of intracellular (cytoplasmic) free calcium.
The antagonist activity of compounds of the invention is measured following pre-incubation (3 minutes) of the compound (at various concentrations) with the cells, followed by addition of the reference agonist (NKA) at a final concentration equivalent to the EC80 (3 nM) and recording of emitted light (FDSS 6000 Hamamatsu) over the subsequent 90-second period. The intensity of the emitted light is integrated using the reader software. Compound antagonist activity is measured based on the concentration-dependent inhibition of the luminescence response to the addition of Neurokinin A.
The IC50 values shown in Table 2 indicate that compounds of the invention are potent NK-3 antagonist compounds.

In data set [2] the target is human NK-1 receptor (Homo sapiens (Human), UniProt P25103). Description: Selectivity binding assay, human NK-1 ([3H] substance P). Conditions: CHO cell membranes; 2 nM [3H] substance P; read-out: hNK-1 (Ki). How it is done:
(§1) Selectivity of the compounds of the invention was determined over the other human NK receptors, namely NK-1 and NK-2 receptors.
The affinity of compounds of the invention for the NK-1 receptor was evaluated in CHO recombinant cells which express the human NK-1 receptor. Membrane suspensions were prepared from these cells. The following radioligand: [^3H] substance P (PerkinElmer Cat#NET111520) was used in this assay. Binding assays were performed in a 50 mM Tris/5 mM MnCl2/150 mM NaCl/0.1% BSA at pH 7.4. Binding assays consisted of 25 μl of membrane suspension (approximately 5 μg of protein/well in a 96 well plate), 50 μl of compound or reference ligand (Substance P) at increasing concentrations (diluted in assay buffer) and 2 nM [^3H] substance P. The plate was incubated 60 min at 25° C. in a water bath and then filtered over GF/C filters (Perkin Elmer, 6005174, presoaked in 0.5% PEI for 2 h at room temperature) with a Filtration unit (Perkin Elmer). The radioactivity retained on the filters was measured by using the TopCount-NXT reader (Packard). Competition curves were obtained for compounds of the invention and the concentrations of compounds which displaced 50% of bound radioligand (IC50) were determined and then apparent inhibition constant Ki values were calculated by the following equation: Ki=IC50/(1+[L]/KD) where [L] is the concentration of free radioligand and KD is its dissociation constant at the receptor, derived from saturation binding experiments (Cheng and Prusoff, 1973).

The target of data set [3] is human NK-2 receptor (Homo sapiens (Human), UniProt P21452). Kind of data set: Selectivity binding assay, human NK-2 ([125I]-Neurokinin A). Conditions: CHO cell membranes; 0.1 nM [125I]-Neurokinin A; read-out: hNK-2 (Ki). How it is done:
as §1
The affinity of compounds of the invention for the NK-2 receptor was evaluated in CHO recombinant cells which express the human NK-2 receptor. Membrane suspensions were prepared from these cells. The following radioligand [^125I]-Neurokinin A (PerkinElmer Cat#NEX252) was used in this assay. Binding assays were performed in a 25 mM HEPES/1 mM CaCl2/5 mM MgCl2/0.5% BSA/10 μg/ml saponin, at pH 7.4. Binding assays consisted of 25 μl of membrane suspension (approximately 3.75 μg of protein/well in a 96 well plate), 50 μl of compound or reference ligand (Neurokinin A) at increasing concentrations (diluted in assay buffer) and 0.1 nM [^125I]-Neurokinin A. The plate was incubated 60 min at 25° C. in a water bath and then filtered over GF/C filters (Perkin Elmer, 6005174, presoaked in assay buffer without saponine for 2 h at room temperature) with a Filtration unit (Perkin Elmer). The radioactivity retained on the filters was measured by using the TopCount-NXT reader (Packard). Competition curves were obtained for compounds of the invention and the concentrations of compounds which displaced 50% of bound radioligand (IC50) were determined and then apparent inhibition constant Ki values were calculated by the following equation: Ki=IC50/(1+[L]/KD) where [L] is the concentration of free radioligand and KD is its dissociation constant at the receptor, derived from saturation binding experiments (Cheng and Prusoff, 1973).

The target of data set [4] is T1, human NK-3 receptor. Kind of data set: 3H-SB222200 binding competition assay with human NK-3 receptor. How it is done:
The affinity of compounds of the invention for the human NK-3 receptor was determined by measuring the ability of compounds of the invention to competitively and reversibly displace a well-characterized NK-3 radioligand in a concentration-dependent manner.
^3H-SB222200 Binding Competition Assay with Human NK-3 Receptor
The ability of compounds of the invention to inhibit the binding of the NK-3 receptor selective antagonist ^3H-SB222200 was assessed by an in vitro radioligand binding assay. Membranes were prepared from Chinese hamster ovary recombinant cells stably expressing the human NK-3 receptor. The membranes were incubated with 5 nM ^3H-SB222200 (ARC) in a HEPES 25 mM/NaCl 0.1M/CaCl2 1 mM/MgCl2 5 mM/BSA 0.5%/Saponin 10 μg/ml buffer at pH 7.4 and various concentrations of compounds of the invention. The amount of ^3H-SB222200 bound to the receptor was determined after filtration by the quantification of membrane associated radioactivity using the TopCount-NXT reader (Packard).

In data set [5] the test system is plasma protein. Kind of data set: Determination of plasma protein binding (rapid equilibrium dialysis). As to conditions: 4 hours at 37° C. Format: in vitro ADME. The text has this: Determination of Plasma Protein Binding
The pharmacokinetic and pharmacodynamic properties of chemicals/drugs are largely a function of the reversible binding of chemicals to plasma or serum proteins. Generally, only the unbound or “free fraction” of a drug is available for diffusion or transport across cell membranes, and for interaction with a pharmacological/toxicological target. Consequently, the extent of the plasma protein binding (PPB) of a compound influences its action as well as its distribution and elimination.
The determination of plasma protein binding (PPB) of a compound is enabled by equilibrium dialysis, an accepted and standard method for reliable estimation of the non-bound drug fraction in plasma. RED (Rapid Equilibrium Dialysis) device insert is made of two side-by-side chambers separated by an O-ring-sealed vertical cylinder of dialysis membrane (MWCO˜8,000). Plasma containing drug (at 5 μM or blood concentrations otherwise corresponding to efficacious doses, if known) is added to one chamber while buffer is added to the second. After 4 hours incubation at 37° C. under shaking, an aliquot is removed from each chamber and analyzed by a LC-MS/MS procedure enables the determination of both free and bound drug.
The percentages provided in Table 4 represent for the compounds of the invention the bound drug fraction to the plasma protein. The “free fraction” may be calculated as 100%−% rPPB (i.e. the complementary percentage of that disclosed in Table 4, corresponding to the drug concentration that is unbound and therefore available to engage biological target and elicit pharmacological activity).

[6] abbreviates: CHO cell membranes, 5 nM 3H-SB222200, Table 2, read-out: Competitive binding assay with human NK-3 receptor hNK-3 (Ki).
Where [7] appears, read: Table 3 (selectivity table), read-out: hNK-3 (Ki).

SMILES strings stand for the structures. Where two headings read alike, the source gives them in different places.

Broadly, the IC50 is the concentration that gives 50% inhibition. One may read the Ki as a measure of affinity in units of concentration, obtained from inhibition or displacement.

Sequence of human NK-1 receptor (P25103 whole entry): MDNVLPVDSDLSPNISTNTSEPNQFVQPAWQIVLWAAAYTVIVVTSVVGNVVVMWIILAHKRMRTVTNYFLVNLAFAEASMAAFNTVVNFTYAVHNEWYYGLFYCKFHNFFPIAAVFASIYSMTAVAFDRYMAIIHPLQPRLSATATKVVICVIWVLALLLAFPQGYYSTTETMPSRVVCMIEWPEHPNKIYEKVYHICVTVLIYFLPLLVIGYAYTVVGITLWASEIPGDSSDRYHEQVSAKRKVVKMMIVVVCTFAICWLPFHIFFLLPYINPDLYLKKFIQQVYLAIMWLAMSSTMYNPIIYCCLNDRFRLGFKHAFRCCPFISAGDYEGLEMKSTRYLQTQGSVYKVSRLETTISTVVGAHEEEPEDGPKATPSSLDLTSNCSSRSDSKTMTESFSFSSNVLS
T1 sequence (P29371 whole entry): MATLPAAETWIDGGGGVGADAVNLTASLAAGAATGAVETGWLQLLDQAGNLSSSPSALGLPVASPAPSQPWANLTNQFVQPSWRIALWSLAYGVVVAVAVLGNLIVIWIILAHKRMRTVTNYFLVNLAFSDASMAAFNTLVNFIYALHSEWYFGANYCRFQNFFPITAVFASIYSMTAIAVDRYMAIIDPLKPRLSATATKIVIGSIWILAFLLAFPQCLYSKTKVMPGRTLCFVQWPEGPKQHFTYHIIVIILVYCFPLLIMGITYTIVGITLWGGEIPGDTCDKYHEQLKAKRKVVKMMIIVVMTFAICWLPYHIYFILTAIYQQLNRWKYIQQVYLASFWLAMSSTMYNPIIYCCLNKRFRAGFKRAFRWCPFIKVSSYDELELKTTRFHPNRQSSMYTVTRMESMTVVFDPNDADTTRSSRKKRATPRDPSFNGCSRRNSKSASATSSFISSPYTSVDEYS
Sequence of human NK-2 receptor (P21452 whole entry): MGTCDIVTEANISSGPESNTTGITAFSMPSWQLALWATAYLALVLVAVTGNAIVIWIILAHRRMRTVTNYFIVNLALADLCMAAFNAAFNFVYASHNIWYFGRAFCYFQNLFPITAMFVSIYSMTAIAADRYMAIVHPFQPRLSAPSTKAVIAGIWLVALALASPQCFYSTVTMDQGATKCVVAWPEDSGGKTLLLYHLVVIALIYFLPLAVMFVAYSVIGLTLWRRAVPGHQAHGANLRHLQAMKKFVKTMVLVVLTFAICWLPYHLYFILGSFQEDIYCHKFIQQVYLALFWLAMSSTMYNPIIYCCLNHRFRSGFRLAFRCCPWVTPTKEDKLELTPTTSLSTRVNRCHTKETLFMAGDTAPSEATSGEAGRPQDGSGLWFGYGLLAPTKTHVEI

In the case of `C[C@@H]1c2nnc(-c3csc(C(F)(F)F)n3)n2CCN1C(=O)c1cc(F)c(F)c(F)c1F` [Compound 12, (R)-(8-methyl-3-(2-(trifluoromethyl)thiazol-4-yl)-5,6-dihydro-[1,2,4]triazolo[4,3-a]pyrazin-7(8H)-yl)(2,3,4,5-tetrafluorophenyl)methanone], the IC50 in data set [1] came out at 33 nM. The Ki in data set [2] was 19000 nM; in data set [3], 4700 nM; in data set [4] (setting [6]) it was 29 nM; in data set [4] (setting [7]), 29 nM. Besides, the “Exposure (% rPPB), bound drug fraction to the plasma protein” value (“Exposure (% rPPB), bound drug fraction” below) in data set [5] is 67%.
On to `C[C@@H]1c2nnc(-c3csc(C(F)(F)F)n3)n2CCN1C(=O)c1ccc(Cl)cc1` [Compound 18, (R)-(4-chlorophenyl)(8-methyl-3-(2-(trifluoromethyl)thiazol-4-yl)-5,6-dihydro-[1,2,4]triazol[4,3-a]pyrazin-7(8H)-yl)methanone], for which the IC50 in data set [1] was found to be 31 nM. Besides, the Ki in data set [2] came to 15000 nM; in data set [3] it was 5900 nM; in data set [4] (setting [6]) it was 21 nM; in data set [4] (setting [7]) it was 21 nM. Further, in data set [5], the “Exposure (% rPPB), bound drug fraction” value stood at 78%.
For the compound `Cc1ccc(-c2nnc3n2CCN(C(=O)c2ccc(F)c(F)c2F)[C@@H]3C)o1` [Compound 6, (R)-(8-methyl-3-(5-methylfuran-2-yl)-5,6-dihydro-[1,2,4]triazolo[4,3-a]pyrazin-7(8H)-yl)(2,3,4-trifluorophenyl)methanone], the IC50 in data set [1] worked out at 99 nM. Moreover, the Ki was above 30000 nM in data set [2], above 30000 nM in data set [3], 74 nM in data set [4] (setting [6]) and 74 nM in data set [4] (setting [7]). For the same compound, the “Exposure (% rPPB), bound drug fraction” value in data set [5] was determined as 37%.
Take `Cc1ccc(-c2nnc3n2CCN(C(=O)c2cc(F)c(F)c(F)c2)[C@@H]3C)o1` [Compound 7, (R)-(8-methyl-3-(5-methylfuran-2-yl)-5,6-dihydro-[1,2,4]triazolo[4,3-a]pyrazin-7(8H)-yl)(3,4,5-trifluorophenyl)methanone]: the IC50 in data set [1] is 57 nM. For the same compound, the Ki stood at 27000 nM in data set [2], 21000 nM in data set [3], 33 nM in data set [4] (setting [6]) and 33 nM in data set [4] (setting [7]). Further, the “Exposure (% rPPB), bound drug fraction” value in data set [5] was 26%.
For `Cc1ccc(-c2nnc3n2CCN(C(=O)c2ccc(Cl)c(Cl)c2)[C@@H]3C)o1` [Compound 11, (R)-(3,4-dichlorophenyl)(8-methyl-3-(5-methylfuran-2-yl)-5,6-dihydro-[1,2,4]triazolo[4,3-a]pyrazin-7(8H)-yl)methanone], the IC50 in data set [1] was 36 nM. For the same compound, the Ki in data set [2] came to 6900 nM; in data set [3], 4200 nM; in data set [4] (setting [6]), 27 nM; in data set [4] (setting [7]), 27 nM. Further, the “Exposure (% rPPB), bound drug fraction” value in data set [5] is reported as 76%.
For the compound `Cc1ccc(-c2nnc3n2CCN(C(=O)c2ccc(Cl)cc2)[C@@H]3C)o1` [Compound 10, (R)-(4-chlorophenyl)(8-methyl-3-(5-methylfuran-2-yl)-5,6-dihydro-[1,2,4]triazolo[4,3-a]pyrazin-7(8H)-yl)methanone], the IC50 in data set [1] was 74 nM. The Ki in data set [2] amounted to 25000 nM; in data set [3], 23000 nM; in data set [4] (setting [6]), 36 nM; in data set [4] (setting [7]), 36 nM. The “Exposure (% rPPB), bound drug fraction” value in data set [5] was found to be 56%.
Turning to `C[C@@H]1c2nnc(-c3csc(C(F)(F)F)n3)n2CCN1C(=O)c1ccc(Cl)c(F)c1` [Compound 17, (R)-(4-chloro-3-fluorophenyl)(8-methyl-3-(2-(trifluoromethyl)thiazol-4-yl)-5,6-dihydro-[1,2,4]triazolo[4,3-a]pyrazin-7(8H)-yl)methanone], in data set [1], the IC50 is 37 nM. The inhibitory constant (Ki) was determined as 12000 nM in data set [2], 5200 nM in data set [3], 22 nM in data set [4] (setting [6]) and 22 nM in data set [4] (setting [7]). Besides, the “Exposure (% rPPB), bound drug fraction” value in data set [5] turned out to be 84%.

These data come from patent US9840508B2, “N-acyl-(3-substituted)-(8-methyl)-5,6-dihydro-[1,2,4]triazolo[4,3-a] pyrazines as selective NK-3 receptor antagonists, pharmaceutical composition, methods for use in NK-3 receptor-mediated disorders” (EUROSCREEN SA, priority 2013, dated 2017).
